Assay results: article PMC3793860, “A role for the vesicle-associated tubulin binding protein ARL6 (BBS3) in flagellum extension in Trypanosoma brucei” (Biochimica et Biophysica Acta, 2012)

Target: T1, TbARL6 (Trypanosoma brucei, UniProt Q57UH8)
T1 construct: gene Tb08.5H5.790; N-terminal His-tagged recombinant TbARL6 (nucleotides 1–570 of the ORF, Tb927.8.5060), expressed in E. coli
T1 sequence (Q57UH8 1-189): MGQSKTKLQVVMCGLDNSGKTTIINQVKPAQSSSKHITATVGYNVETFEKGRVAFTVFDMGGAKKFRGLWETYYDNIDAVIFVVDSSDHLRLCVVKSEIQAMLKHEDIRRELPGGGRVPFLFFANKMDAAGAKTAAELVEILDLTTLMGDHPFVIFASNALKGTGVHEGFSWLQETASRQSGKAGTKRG
Assay: mant fluorescence titration, one-site non-linear regression; displacement kinetics
Format: binding

Structure (SMILES)	Kd
CNc1ccccc1C(=O)O[C@H]1[C@@H](O)[C@H](n2cnc3c(=O)[nH]c(N)nc32)O[C@@H]1COP(=O)(O)OP(=O)(O)O [mGDP, mantGDP]	4.35 µM
CNc1ccccc1C(=O)O[C@H]1[C@@H](O)[C@H](n2cnc3c(=O)[nH]c(N)nc32)O[C@@H]1COP(=O)(O)OP(=O)(O)OP(=O)(O)O [mGTP, mantGTP]	13.7 µM
